Laboratory results: article PMC10285260, “Processive kinetics in the three-step lanosterol 14α-demethylation reaction catalyzed by human cytochrome P450 51A1” (The Journal of Biological Chemistry, 2023)
Like-named read-outs stand apart in the source and are kept apart here.

How the values were obtained:
human P450 51A1 [1] = assay: Kinetic modeling (KinTek Explorer) of the single-turnover time course
From the text: The initial koff rate constants used in fitting were the koff rates measured in the stopped-flow trap experiments (Fig. 9). All three oxidation reactions are irreversible, and thus k-2, k-4, and k-6 were set to zero.
Data were imported into KinTek Explorer software (v. 11.01, KinTek, https://kintekcorp.com/software) ([63], [64]) as txt files and processed using an Apple computer (operating system 11.6.2).

human P450 51A1 [2] = molecular target: T1, human P450 51A1 (Homo sapiens, UniProt Q16850); assay: Single-turnover rapid-quench kinetics of [3-3H]-dihydrolanosterol oxidation (radio-HPLC); format: biochemical; parameters: made in house; host or cells: Escherichia coli
T1 sequence (Q16850 1-509): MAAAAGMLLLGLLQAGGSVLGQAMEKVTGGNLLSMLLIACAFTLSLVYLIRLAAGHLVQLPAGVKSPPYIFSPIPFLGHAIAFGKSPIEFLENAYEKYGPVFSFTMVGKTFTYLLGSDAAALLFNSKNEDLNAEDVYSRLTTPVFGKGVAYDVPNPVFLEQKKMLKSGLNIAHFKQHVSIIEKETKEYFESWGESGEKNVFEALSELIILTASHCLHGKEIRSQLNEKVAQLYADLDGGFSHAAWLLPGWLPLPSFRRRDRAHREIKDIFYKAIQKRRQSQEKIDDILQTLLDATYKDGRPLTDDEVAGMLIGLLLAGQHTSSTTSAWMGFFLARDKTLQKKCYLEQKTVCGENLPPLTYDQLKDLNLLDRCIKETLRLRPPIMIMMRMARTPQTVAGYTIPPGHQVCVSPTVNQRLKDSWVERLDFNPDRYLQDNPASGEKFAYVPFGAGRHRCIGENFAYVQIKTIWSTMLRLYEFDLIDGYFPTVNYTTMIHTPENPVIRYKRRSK
Protocol: All products were separated and quantified by radio-HPLC (Fig. S24).
Samples (held at 4 °C) were injected (45 μl) onto a Nova-Pak 3.9 mm × 150 mm (4 μm) octadecylsilane (C18) HPLC column (held at 23 °C). The products were separated at a flow rate of 1.0 ml min^−1 using an isocratic mobile phase composed of CH3CN (only) as was done for the LC-UV assays (above). The eluate from the column was mixed (1:2, v-v) with FlowLogic U scintillation cocktail, and radioactivity (^3H) was detected on a β-RAM Model 5 system (IN/US, LabLogic) (Fig. S24). Product formation was assessed as the relative contribution of each peak (in CPM) to the summed peak area of substrate and product(s).
The single-turnover experiments were performed using a KinTek rapid quench-flow apparatus (KinTek). This machine functions by forcing equal volumes (∼19 μl) of two separate solutions into a central mixing chamber, where the components are allowed to incubate for a predetermined period of time before an excess volume of quench solution (∼160 μl) stops the reaction and expels the mixture from the apparatus. […] After the predetermined incubation period, the reaction (37 °C) was quenched with HCl (1 M), and the mixture (∼200 μl) was collected into vials. The products of five identical reactions (time points) were combined and were extracted into CH2Cl2 (5 ml). An aliquot (4 ml) of the lower (organic) layer was removed into a fresh vial, and the extraction was repeated to maximize sample recovery. The pooled organic fraction (∼8 ml) was brought to dryness under a stream of N2 gas, and the residue was redissolved in 60 μl of CH3OH and transferred to LC vials for analysis.

human P450 51A1 [3] = molecular target: T1, human P450 51A1; assay: Stopped-flow koff measurements of P450 51A1-sterol complexes with ketoconazole trap; format: binding; parameters: made in house; host or cells: Escherichia coli; conditions: 23 °C, 10 μM ketoconazole trap, 1 μM P450 51A1
Protocol: All assays were done at 23 °C in an OLIS-RSM 1000 stopped-flow spectrophotometer, collecting data every 1 ms over a range of 332 to 565 nm with slit widths of 1.24 mm (8 nm bandpass) and gratings with 400 lines/mm and 500 nm blaze. One syringe contained 20 μM ketoconazole dissolved in 100 mM potassium phosphate buffer (pH 7.4). In a preliminary experiment in which this was mixed with an equal volume of 2 μM P450 51A1 (same buffer), the observed rate of binding (ΔA430) was 25 s^−1.
P450 51A1 (2 μM) was premixed with an equivalent concentration of each of the sterols (in HPCD). Each of these solutions was placed in a drive syringe and rapidly mixed with 20 μM ketoconazole (yielding final concentrations of 1 μM P450 51A1 and 10 μM ketoconazole). The rate of the ΔA430-A390 change was used as the koff rate, that is, the rate at which the sterol left the P450 and allowed it to bind to the trap ligand ketoconazole.

human P450 51A1 [4] = molecular target: T1, human P450 51A1; assay: Spectral (difference spectroscopy) Kd estimates of P450 51A1-sterol complexes; format: binding; parameters: made in house; host or cells: Escherichia coli
Protocol: Kd values were estimated by difference spectroscopy. P450 51A1 (1.0 μM) was in each of two glass cuvettes (in 100 mM potassium phosphate buffer, pH 7.4) and a baseline was recorded (OLIS-Amino DW2a). Aliquots of a solution of each sterol–HPCD complex were added to the sample cuvette and an equivalent amount of HPCD was added to the reference cuvette, and spectra were recorded. The time between the collection of individual spectra was ∼3 min. The maximum absorbance difference (usually ΔA390-A418) was plotted versus the nominal concentration of added sterol, and the data were fit to hyperbolae in GraphPad Prism software (GraphPad, https://www.graphpad.com), using a quadratic equation to correct the ligand concentration for the enzyme-bound concentration (used as Y=B+(A/2)∗(1/E)∗((Kd+E+X)-sqrt((Kd + E+X)^∧2-(4∗E∗X)) in Prism software). The linear regression fits include the internal error estimates (SE).

human P450 51A1 [5] = molecular target: T1, human P450 51A1; assay: Steady-state LC-UV assay of sterol oxidation to dihydro FF-MAS by reconstituted P450 51A1; conditions: oxidation to dihydro FF-MAS (epi-dihydro FF-MAS from epi substrate), 37 °C
Protocol: Steady-state incubations (500 μl) were generally done at 37 °C with 0.025 μM P450 51A1, 0.10 μM NADPH-P450 reductase, 100 μM L-α-dilauroyl-sn-glycero-3-phosphocholine, 50 mM potassium phosphate buffer (pH 7.4), 10% (v/v) glycerol, and an indicated concentration of each sterol (in 45% (w/v) HPCD). […] The sterols (stored at 4 °C) were prepared as described above and were heated to 37 °C and sonicated prior to use. Sterol working stocks were diluted in HPCD to ensure a constant concentration of cyclodextrin in each reaction. […] Accordingly, all reactions were done with this concentration of glycerol.
Reactions were preincubated (5 min, 37 °C) prior to initiation with an NADPH-regenerating system (0.5 mM NADP^+, 10 mM glucose 6-phosphate, and 2 μg ml^−1 glucose 6-phosphate dehydrogenase) ([60]) and were stopped after 5 min with the addition of CH2Cl2 (5 ml). (The NADPH-generating system, in addition to lower cost than NADPH, drives the reaction to avoid inhibition of the reductase by accumulated NADP^+). For the 14α-aldehyde, the times of preincubation and reaction were reduced (to 2 min and 1 min, respectively). The quenched mixture was centrifuged (2000g, 5 min), and 4 ml of the bottom (organic) layer was transferred to vials and brought to dryness under a stream of N2 gas. The dried residue was resuspended in CH3OH (100 μl) and was analyzed by UPLC using a 2.1 mm × 100 mm (1.7 μm) octadecylsilane (C18) column (held at 25 °C) and a Waters Acquity UPLC system. Samples (4 °C) were injected (10 μl) at a flow rate of 0.20 ml min^−1 using an isocratic mobile phase of CH3CN (only). The product (FF-MAS) was detected using a Waters Acquity photodiode array detector set at 250 nm (Fig. 4B). Data were processed using the MassLynx software (http://www.waters.com/waters/en_US/MassLynx-Mass-Spectrometry-Software-/nav.htm?cid=513164&locale=en_US), and the amount of product formed was calculated by comparison to a twelve-point dihydro FF-MAS standard curve. Determination of kcat and Km for each reaction was carried out by fitting the data to a Michaelis–Menten hyperbola, which was done using GraphPad Prism.
Incubations were run in triplicate, and the mean values (±SD) were calculated and plotted. The linear regression fits include the Prism error estimates for internal fitting (SE).

human P450 51A1 [6] = molecular target: T1, human P450 51A1; assay: Stopped-flow rate of ketoconazole binding to P450 51A1; parameters: made in house; host or cells: Escherichia coli; conditions: 10 μM ketoconazole, 1 μM P450 51A1 final
[7] = substrate: CC(C)CCCC(C)[C@H]1CC[C@@]2(C=O)C3=C(CC[C@]12C)[C@@]1(C)CC[C@H](O)C(C)(C)C1CC3; assay: purified protein, by the assay type; conditions: other: oxidation to dihydro FF-MAS (epi-dihydro FF-MAS from epi substrate), 37 °C, pH 7.4
Protocol: (§1) Steady-state incubations (500 μl) were generally done at 37 °C with 0.025 μM P450 51A1, 0.10 μM NADPH-P450 reductase, 100 μM L-α-dilauroyl-sn-glycero-3-phosphocholine, 50 mM potassium phosphate buffer (pH 7.4), 10% (v/v) glycerol, and an indicated concentration of each sterol (in 45% (w/v) HPCD). Due to the high turnover rate of the 14α-aldehyde, the P450 and NADPH-P450 reductase concentrations were reduced (to 0.01 μM and 0.04 μM, respectively), and the reaction volume was increased (to 1 ml) to maximize sensitivity. The sterols (stored at 4 °C) were prepared as described above and were heated to 37 °C and sonicated prior to use. Sterol working stocks were diluted in HPCD to ensure a constant concentration of cyclodextrin in each reaction. […] Accordingly, all reactions were done with this concentration of glycerol.
(§2) Reactions were preincubated (5 min, 37 °C) prior to initiation with an NADPH-regenerating system (0.5 mM NADP^+, 10 mM glucose 6-phosphate, and 2 μg ml^−1 glucose 6-phosphate dehydrogenase) ([60]) and were stopped after 5 min with the addition of CH2Cl2 (5 ml). […] For the 14α-aldehyde, the times of preincubation and reaction were reduced (to 2 min and 1 min, respectively). The quenched mixture was centrifuged (2000g, 5 min), and 4 ml of the bottom (organic) layer was transferred to vials and brought to dryness under a stream of N2 gas. The dried residue was resuspended in CH3OH (100 μl) and was analyzed by UPLC using a 2.1 mm × 100 mm (1.7 μm) octadecylsilane (C18) column (held at 25 °C) and a Waters Acquity UPLC system. Samples (4 °C) were injected (10 μl) at a flow rate of 0.20 ml min^−1 using an isocratic mobile phase of CH3CN (only). The product (FF-MAS) was detected using a Waters Acquity photodiode array detector set at 250 nm (Fig. 4B). Data were processed using the MassLynx software (http://www.waters.com/waters/en_US/MassLynx-Mass-Spectrometry-Software-/nav.htm?cid=513164&locale=en_US), and the amount of product formed was calculated by comparison to a twelve-point dihydro FF-MAS standard curve. Determination of kcat and Km for each reaction was carried out by fitting the data to a Michaelis–Menten hyperbola, which was done using GraphPad Prism.

[8] = substrate: CC(C)CCCC(C)[C@H]1CC[C@@]2(CO)C3=C(CC[C@]12C)[C@@]1(C)CC[C@H](O)C(C)(C)C1CC3; assay: purified protein, by the assay type; conditions: other: oxidation to dihydro FF-MAS (epi-dihydro FF-MAS from epi substrate), 37 °C, pH 7.4
Protocol: as §1, §2

[9] = substrate: CC(C)CCCC(C)[C@H]1CC[C@@]2(C)C3=C(CC[C@]12C)[C@@]1(C)CC[C@H](O)C(C)(C)C1CC3; assay: purified protein, by the assay type; conditions: pH 7.4
[10] = substrate: CC(C)CCCC(C)[C@H]1CC[C@@]2(C)C3=C(CC[C@]12C)[C@@]1(C)CC[C@@H](O)C(C)(C)C1CC3; assay: purified protein, by the assay type; conditions: other: oxidation to dihydro FF-MAS (epi-dihydro FF-MAS from epi substrate), 37 °C, pH 7.4
Protocol: as §1, §2

For `CC(C)CCC[C@@H](C)[C@H]1CC=C2C3=C(CC[C@@]21C)[C@@]1(C)CC[C@H](O)C(C)(C)[C@@H]1CC3` [dihydro FF-MAS, 24,25-dihydro FF-MAS], the “k^+ of sterol binding to P450 51A1 (kon) used for fitting” value (human P450 51A1 [1]; all kon set at this value) was 2e+06 M⁻¹ s⁻¹, the “k^- of sterol binding to P450 51A1 (koff) used for fitting” value (human P450 51A1 [1]; optimized model) was 2.0 s⁻¹ and the “concentration in single-turnover reaction” value (“concentration” below) (human P450 51A1 [2]; time 0.05 s, start 7 µM dihydrolanosterol) was 0 µM. The “concentration” value (human P450 51A1 [2]; time 0.1 s) was 0 µM, the “concentration” value (human P450 51A1 [2]; time 0.15 s) was 0.2821 µM and the “concentration” value (human P450 51A1 [2]; time 0.2 s) was 0.4249 µM. For the same molecule, the “concentration” value (human P450 51A1 [2]; time 0.3 s) was 0.7518 µM, the “concentration” value (human P450 51A1 [2]; time 0.4 s) was 1.2019 µM and the “concentration” value (human P450 51A1 [2]; time 0.6 s) was 2.506 µM. For the same molecule, the “concentration” value (human P450 51A1 [2]; time 0.8 s) was 3.0184 µM, the “concentration” value (human P450 51A1 [2]; time 1 s) was 4.0537 µM and the “concentration” value (human P450 51A1 [2]; time 1.2 s) was 4.494 µM. For the same molecule, the “concentration” value (human P450 51A1 [2]; time 1.6 s) was 4.8181 µM, the “concentration” value (human P450 51A1 [2]; time 2 s) was 5.2031 µM and the “concentration” value (human P450 51A1 [2]; time 3 s) was 5.8863 µM. For the same molecule, the “concentration” value (human P450 51A1 [2]; time 4 s) was 6.6353 µM, the “concentration” value (human P450 51A1 [2]; time 7 s) was 7 µM and the koff (human P450 51A1 [3]) was 2 s⁻¹. For the same molecule, the Kd (human P450 51A1 [4]; 1.0 μM P450 51A1, quadratic fit, read-out: Kd) was 1.4 µM.

`CC(C)CCCC(C)[C@H]1CC[C@@]2(C)C3=C(CC[C@]12C)[C@@]1(C)CC[C@@H](O)C(C)(C)C1CC3` (stereo partly drawn) [epi-dihydrolanosterol, epi-Dihydrolanosterol] gave a Kd (human P450 51A1 [4]) of 0.014 µM and a kcat (human P450 51A1 [5]) of 0.42 ± 0.03 s⁻¹.

In the case of `CC(=O)N1CCN(c2ccc(OCC3COC(Cn4ccnc4)(c4ccc(Cl)cc4Cl)O3)cc2)CC1` (centres unmarked) [ketoconazole], the “pseudo-first-order observed rate of binding” value (human P450 51A1 [6]) is reported as 25 s⁻¹.

B1: human P450 51A1 (Homo sapiens) (protein)
chain: T1 sequence (Q16850 1-509)
Molecule B1 has a Km [7] of 5.4 ± 0.7 µM, a kcat [7] of 1.7 ± 0.1 s⁻¹ and a Km [8] of 4.3 ± 0.4 µM. The kcat [8] was 0.67 ± 0.03 s⁻¹, the kcat/Km ([9]; other: conversion to dihydro FF-MAS, isotope effect comparison) was 1.3 (±0.2) × 10^5 M^−1 s^−1 and the Km ([9]; other: oxidation to dihydro FF-MAS (epi-dihydro FF-MAS from epi substrate), 37 °C) was 5.0 ± 0.6 µM. The Km [10] was 2.0 ± 0.4 µM.
